In brackets after ≈: the same amount, converted by molar mass.
Assays:
ZIKV NS2B-NS3 protease [1] = molecular target: T1, ZIKV NS2B-NS3 protease (Zika virus, UniProt A0A024B7W1, DEL1468-1502); assay: Enzyme kinetic experiments, mode of protease inhibition; assay type: biochemical; details: 5 nM protease, substrate 0-100 μM, drug 0-1000 μg/ml; global R^2=0.99
Experimental: Hydrogen bonds and hydrophobic contact areas are represented by dashed lines and the two brackets, respectively. The main interacting residues are labeled. The dashed lines represent bonds between hydrogen and acceptor atoms that are involved. […] In the assay, concentration of ZIKV NS2B-NS3 protease was fixed as 5 nM, while different concentrations of substrate (100, 50, 25, 12.5, 6.25, 3.125 and 0 μM) were added to plot the enzyme kinetic curves. Four concentrations of the drug (1000, 250, 62.5 and 0 μg/ml) were tested individually against the different concentrations of substrate. The experiments were repeated twice for confirmation. The data were analyzed for mode of inhibition by GraphPad Prism 6 in the module of enzyme kinetics. R^2>0.95 was considered as statistically significant.
To explore the mode of protease inhibition, enzyme kinetic experiments were performed in the presence or absence of the drug.

[2] = human; cited from earlier work
[3] = test system: ZIKV (Puerto Rico strain PRVABC59); assay: Viral load reduction assay (qRT-PCR) in Huh-7 cells; assay type: cell-based; details: Zika virus, 0.05 MOI, 48 hours post-infection, supernatant qRT-PCR
Experimental: A clinical isolate of ZIKV (Puerto Rico strain PRVABC59) obtained from a patient in the recent South American epidemic was kindly provided by Brandy Russell and Barbara Johnson, Centers for Disease Control and Prevention, USA. The virus was cultured and titrated as we previously described with slight modifications (Chan et al., 2016b; Zhou et al., 2014). The virus was amplified by three additional passages in Vero cells (ATCC) in minimum essential medium (MEM) supplemented with 1% fetal bovine serum (FBS, Gibco™, Life Technologies Corporation, Massachusetts, USA) and 100 units/ml penicillin plus 100 μg/ml streptomycin to make working stocks of the virus (4×10^6 50% tissue culture infectious dose (TCID50)/ml). For virus titration, aliquots of ZIKV were applied on confluent Vero cells in 96-well plates for the TCID50 assay as was previously described with slight modifications (Chan et al., 2016b; Zhou et al., 2014). Briefly, serial 10-fold dilutions of ZIKV were inoculated in a Vero cell monolayer in quadruplicate and cultured in penicillin/streptomycin-supplemented MEM and 1% FBS. […] Viral titer was calculated using the Reed and Munch endpoint method. One TCID50 was interpreted as the amount of virus that causes cytopathic effect in 50% of inoculated wells.

ZIKV NS2B-NS3 protease [4] = molecular target: T1, ZIKV NS2B-NS3 protease; assay type: biochemical; details: 10 μM substrate, 5 nM protease
[5] = Cell viability (MTT) assay in Vero cells; assay type: cell-based; details: African green monkey
Experimental: (§1) Briefly, Vero or Huh-7 cells (4×10^4 cells/well) were incubated with different concentrations of individual drug for 24 h, followed by the addition of 10 μl/well of 5 mg/ml MTT substrate. The monolayers were incubated as above for 4 h (away from light). Finally, 100 μl of 10% sodium dodecyl sulfate (SDS) with 0.01M HCl was added and further incubated at 37° C. with 5% CO2 overnight. […] Briefly, the drug compounds were diluted with serum-free MEM and added to confluent Vero cells in 96-well culture plates (4×10^4 cells/well) in triplicate for 2 h at 37° C. After incubation, the drug-containing media were removed, and ZIKV (multiplicity of infection, MOI=0.0002) was added together with fresh drug-compound media to each well. Following 1 h of adsorption at 37° C., the virus-compound mixture was removed and the cells were washed twice with MEM to remove unbound virus. Subsequently, media with antiviral compounds were added to the cells for further incubation for 6 days at 37° C. in a 5% CO2 humidified environment. CPE was examined by inverted light microscopy (Chan et al., 2016b). Thereafter, MTT substrate and SDS-HCl were added sequentially as mentioned above. The half maximal inhibitory concentration (IC50) and CC50 were calculated using Sigma plot (SPSS) in an Excel add-in ED50V10.

ZIKV [6] = assay: Plaque reduction assay in Vero cells; assay type: cell-based, Zika virus
Experimental: Plaque reduction assay was performed as we previously described with slight modifications (Chan et al., 2017a). Briefly, Vero cells were seeded at 2×10^5 cells/well in 24-well tissue culture plates on the day before carrying out the assay. After 24 h of incubation, 20-40 plaque-forming units (PFU) of ZIKV were added to the cell monolayer with or without the addition of drug compounds and the plates were further incubated for 1 h at 37° C. in 5% CO2 before removal of unbound viral particles by aspiration of the media and washing once with MEM. Monolayers were then overlaid with media containing 1% low melting agarose (Cambrex Corporation, New Jersey, USA) in MEM and appropriate concentrations of drug compounds, inverted and incubated as above for another 96 h. The wells were then fixed with 10% formaldehyde (BDH, Merck, Darmstadt, Germany) overnight. After removal of the agarose plugs, the monolayers were stained with 0.7% crystal violet (BDH, Merck) and the plaques were counted. The percentage of plaque inhibition relative to the control (i.e. without the addition of compound) wells were determined for each drug compound concentration.

[7] = test system: ZIKV (Puerto Rico strain PRVABC59); assay: Viral load reduction assay (qRT-PCR) in Vero cells; assay type: cell-based, Zika virus
Experimental: Viral load reduction assay and plaque reduction assay was performed for the evaluation of antiviral activity. Briefly, ZIKV-infected Vero cells (MOI=0.05) were treated with different concentrations of drugs or dimethyl sulfoxide (DMSO) control, cell culture supernatants (Vero and Huh-7) were collected at 48 hours post-infection, followed by total nucleic acid extraction and quantitative reverse transcription-PCR (qRT-PCR) as previously described with modifications (Chan et al., 2013; Chan et al., 2016b; Chan et al., 2017a). The IC50 was calculated using Sigma plot (SPSS) in an Excel add-in ED50V10. The viral load reduction assay experiments were performed in triplicate and repeated twice for confirmation.

ZIKV [8] = assay: Time-of-drug-addition assay in Vero cells; assay type: cell-based, Zika virus
Experimental: Briefly, Vero cells were seeded in 24-well plates (2×10^5 cells/well). The cells were inoculated with ZIKV (MOI=2) and then incubated for 1 h for virus internalization. The viral inoculum was then removed and the cells were washed twice with PBS. […] At 18 hpi, the cell culture supernatant of each time point experiment was collected for viral load measurement using qRT-PCR.

ZIKV [9] = assay: MTT-based CPE inhibition assay in Vero cells; assay type: cell-based; details: Zika virus, 144 h, MOI 0.0002, 6 days
Experimental: as §1

[10] = Cell viability (MTT) assay in Huh-7 cells; assay type: cell-based; details: human
Experimental: as §1

T1 sequence (A0A024B7W1 1502-1672, added parts left off, stated change not applied): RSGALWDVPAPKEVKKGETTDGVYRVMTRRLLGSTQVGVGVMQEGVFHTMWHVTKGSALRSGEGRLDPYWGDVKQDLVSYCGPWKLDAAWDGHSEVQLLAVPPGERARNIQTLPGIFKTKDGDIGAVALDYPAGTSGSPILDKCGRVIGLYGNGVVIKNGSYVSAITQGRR

For `CO[C@@H]1[C@@H](OC(N)=O)[C@@H](O)[C@H](Oc2ccc3c(O)c(NC(=O)c4ccc(O)c(CC=C(C)C)c4)c(=O)oc3c2C)OC1(C)C` [Novobiocin], the “Mode of protease inhibition” value (ZIKV NS2B-NS3 protease [1]) is listed as “competitive”, the Clinical tolerability [2] is listed as “generally well tolerated clinically” and the IC50 [3] is listed as 38.1 ± 4.53 µg/mL (≈ 62.3 µM). For the same compound, the “Effect of increasing drug concentrations on protease activity” value (ZIKV NS2B-NS3 protease [4]) was “dose-dependent reduction in protease activity”, the CC50 at 24 h [5] was 850 µg/mL (≈ 1390 µM) and the IC50 (ZIKV [6]; Zika virus, Vero cells) was 15.21 ± 0.14 µg/mL (≈ 24.8 µM). For the same compound, the Plaque reduction (ZIKV [6]; at concentrations ≥50.00 μg/ml) was 100%, the IC50 ([7]; Zika virus, Vero, 48 h, read-out: IC50, viral load reduction assay) was 26.1 ± 0.33 µg/mL (≈ 42.6 µM) and the “Concentration at which mean virus titer was significantly reduced (P<0.05)” value ([7]; viral load reduction assay) was no less than 25.00 µg/mL. For the same compound, the “Viral loads at 18 hpi, drug added during virus replication stage” value (ZIKV [8]; 100 μg/ml added at 0, 3, 6, 9, or 12 hpi, MOI 2, P<0.05) was “significantly reduced”, the “Inhibitory activity, drug added at adsorption or release stage” value (ZIKV [8]; 100 μg/ml at 0-1 hpi or at 14 hpi) was “No significant inhibitory activity” and the “ZIKV attachment, cells pretreated with drug” value (ZIKV [8]; 100 μg/ml, −1 to 0 hpi) was “not affected”. The IC50 (ZIKV [9]) was 53.3 ± 2.48 µg/mL (≈ 86.9 µM) and the CC50 at 24 h [10] was 1100 µg/mL (≈ 1800 µM).

— patent US11517581B2, “Zika virus protease inhibitors and methods of use thereof” (priority 2017, dated 2022)
